In patent publication US12534477B2, “Compound having KHK inhibitory effect” (HANGZHOU ZHONGMEIHUADONG PHARMACEUTICAL CO., LTD., priority 2019, dated 2026):
pIC50: −log10 of the molar value. Read-outs that look alike come from different tables or passages of the source.

Tests used:
[1] = molecular target: Recombinant Human Ketohexokinase (KHK) (Homo sapiens (Human), UniProt P50053); assay: Ketohexokinase assay (KHK assay), ADP-Glo; format: biochemical
Description: • 1. EnVision multilabel reader, Perkin Elmer; • 2. OptiPlate 384-well microplate, Perkin Elmer, Cat. No. 6007290; • 3. Recombinant Human Ketohexokinase (KHK), R&D Cat. No.: 8177-HK-020, Lot No.: DDFK0117092; • 4. Fructose (D(−)-Fructose), SCR Cat. No.: 36003034; and • 5. ADP-Glo kinase assay kit, Promega_Cat. No.: V9101.
1. preparation of Dilution Buffer containing 50 mM hydroxyethylpiperazine […] (Hepes), 140 mM KCl, 3.5 mM MgCl2, and 0.01% bovine serum albumin (BSA), pH 7.4.
2. A working solution of ketohexokinase at 2.5 times concentration was prepared with Dilution Buffer, with 50 nM ketohexokinase and 12.5 mM fructose.
3. A working solution of adenosine triphosphate (ATP) at 2.5 times concentration was prepared with Dilution Buffer, with a concentration of 250 μM.
4. Each compound was diluted starting at a concentration of 500 μM, 3-fold diluted for 9 concentration points. The final concentration of the compound in the reaction system started from 10 μM and the final concentration of dimethyl sulfoxide (DMSO) was 2%.
5. A 96-well plate was prepared as a reaction plate, and was incubated at room temperature for 5 min after adding 6 μL ketohexokinase working solution at 2.5 times concentration to each well and further adding 3 μL compound working solution to each well.
6. The first well of each row was a positive control for a compound, i.e. the same volume of the buffer was added to replace the compound and ketohexokinase. The last well was a negative control for the compound, i.e. the same volume of Dilution Buffer was added instead of the compound.
7. 6 μL ATP working solution was added to each well in a 96-well reaction plate to initiate the kinase reaction. The kinase reaction was incubated in a constant temperature heater at 28° C. for 1 h.
1. A384 plate was prepared as a detection plate, and firstly 5 μL ADP-Glo reagent was added.
2. 5 μL kinase reaction mixture from the reaction plate was added to each well and incubated in a constant temperature heater at 28° C. for 30 min.
3. 10 μL kinase detection reagent was added to each well and incubated in a constant temperature heater at 28° C. for 30 min.
4. The detection plate was placed in an EnVision multilabel reader to read the chemiluminescent signal.

[2] = Liver-blood ratio, tissue distribution in rats; format: in vivo, SD rats; conditions: SD, rat, 1 mg/kg, PO 1 mpk
Description: Tissue distribution of compounds in SD rats was tested.
In the experiment, candidate compounds were formulated as clear solutions and administered to rats in a single oral dose (PO, 1 mpk). The vehicle for oral administration was a certain proportion of methylcellulose and Tween 80 in water. Whole blood was collected at a certain time and plasma was prepared, and tissues were collected at the corresponding time and prepared into tissue homogenates. Drug concentration was analyzed by LC-MS/MS, and pharmacokinetic parameters were calculated by Phoenix WinNonlin software.

[3] = tested on: fructose metabolism in mice; assay: Acute fructose feeding experiment in mice; format: in vivo; conditions: compound 30 mpk, oral fructose 1 g/kg
Description: The effect of test compounds on the fructose content in mice with high fructose intake was investigated.
All animals were acclimated for one week in an animal house, fed with normal chow and fasted for 16 hours before being given fructose.
1) The experiment began at −0.5 hr. A control group was given a certain volume of vehicle (a certain proportion of methylcellulose and Tween 80 in water), and an experimental group was given a certain dose of a solution of the compound (the administered volume was consistent with the vehicle).
2) 0.5 hour later and before administration of a fructose solution, a blood sample was collected at 0 hr, followed by oral administration of 1 g/kg of an aqueous fructose solution.
3) After the administration of fructose, blood samples were collected from saphenous vein of mice at 0.25, 0.5, 1, 2, 3 and 8 hr, and fructose concentration was analyzed by LC-MS/MS.

Recombinant Human Ketohexokinase (KHK), sequence (P50053 whole entry): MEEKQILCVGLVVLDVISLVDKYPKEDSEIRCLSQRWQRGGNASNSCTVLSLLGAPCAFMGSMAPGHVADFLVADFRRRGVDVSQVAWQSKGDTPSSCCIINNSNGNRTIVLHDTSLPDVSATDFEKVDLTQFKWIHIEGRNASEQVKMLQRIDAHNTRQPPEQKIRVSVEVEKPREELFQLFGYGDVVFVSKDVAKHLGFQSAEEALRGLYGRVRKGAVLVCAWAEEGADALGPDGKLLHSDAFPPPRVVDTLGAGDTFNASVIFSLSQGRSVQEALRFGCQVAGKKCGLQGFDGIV

Row | Structure (SMILES) | pIC50 [1] | also measured
1 | C[C@H]1CCN1c1nc(N2C[C@@H]3[C@@H](CC(=O)O)[C@@H]3C2)c2scnc2n1 [WX002] | 6.72 | –
2 | C[C@H]1CCN1c1nc(Nc2ccc(CC(=O)O)cc2)c2ncsc2n1 [WX003] | 6.96 | –
3 | C[C@H]1CCN1c1nc(N2C[C@@H]3[C@@H](CC(=O)O)[C@@H]3C2)nc2ncsc12 [WX005] | 6.19 | –
4 | Cc1csc2nc(N3CC[C@@H]3C)nc(Nc3ccc(CC(=O)O)cc3)c12 [WX007] | 7.80 | –
5 | Cc1csc2nc(N3CC[C@@H]3C)nc(N3C[C@@H]4C(CC(=O)O)[C@@H]4C3)c12 (stereo partly shown) [WX008] | 6.68 | –
6 | C[C@H]1CCN1c1nc(N2CC3(CC3C(=O)O)C2)c2ccsc2n1 (stereo partly shown) [WX009] | 7.00 | –
7 | C[C@H]1CCN1c1nc(Nc2ccc(CC(=O)O)c(F)c2)c2ccsc2n1 [WX010] | 7.82 | –
8 | C[C@H]1CCN1c1nc(Nc2ccc(C(=O)O)c(C#N)c2)c2ccsc2n1 [WX011] | 7.77 | –
9 | C[C@H]1CCN1c1nc(Nc2ccc(C(=O)O)cc2)c2ccsc2n1 [WX012] | 8.03 | concentration at 1.5 h ([2]; liver, 1.5 h, read-out: Liver tissue concentration): 2100 nM; concentration at 2 h ([2]; liver, 2.0 h, read-out: Liver tissue concentration): 618 nM; concentration at 6 h ([2]; liver, 6.0 h, read-out: Liver tissue concentration): 634 nM; Kp at 1.5 h ([2]; liver/plasma, 1.5 h, read-out: Liver-blood ratio): 2.62; Kp at 2 h ([2]; liver/plasma, 2.0 h, read-out: Liver-blood ratio): 2.32; Kp at 6 h ([2]; liver/plasma, 6.0 h, read-out: Liver-blood ratio): 4.39; concentration at 1.5 h ([2]; plasma, 1.5 h, read-out: Plasma concentration): 810 nM; concentration at 2 h ([2]; plasma, 2.0 h, read-out: Plasma concentration): 273 nM; concentration at 6 h ([2]; plasma, 6.0 h, read-out: Plasma concentration): 145 nM
10 | C[C@H]1CCN1c1nc(Nc2cc(F)c(CC(=O)O)c(F)c2)c2ccsc2n1 [WX014] | 7.85 | –
11 | C[C@H]1CCN1c1nc(Nc2cc(F)c(C(=O)O)c(F)c2)c2ccsc2n1 [WX015] | 8.17 | –
12 | C[C@H]1CCN1c1nc(-c2cccc(CCC(=O)O)c2)c2ccsc2n1 [WX016] | 7.49 | –
13 | C[C@H]1CCN1c1nc(-c2cccc(/C=C/C(=O)O)c2)c2ccsc2n1 [WX017] | 7.70 | –
14 | C[C@H]1CCN1c1nc(N2CC(CC(=O)O)C2)c2ccsc2n1 [WX018] | 6.41 | –
15 | C[C@H]1CCN1c1nc(N2CC3(C[C@H]3C(=O)O)C2)c2ccsc2n1 [WX019] | 6.96 | AUC of integral fructose concentration for dosed group [3]: 849 nM·h; AUC of integral fructose concentration of dosed group/AUC of Integral fructose concentration of control group [3]: 6.1
16 | C[C@H]1CCN1c1nc(N2CC3(C[C@@H]3C(=O)O)C2)c2ccsc2n1 [WX020] | 6.89 | AUC of integral fructose concentration for dosed group [3]: 1180 nM·h; AUC of integral fructose concentration of dosed group/AUC of Integral fructose concentration of control group [3]: 8.5
17 | C[C@H]1CCN1c1nc2c(c(N3C[C@@H]4[C@@H](CC(=O)O)[C@@H]4C3)n1)CSC2 [WX021] | 6.80 | –
18 | C[C@H]1CCN1c1nc(-c2ccc(CC(=O)O)c(F)c2)c2ccsc2n1 [WX022] | 6.70 | –
19 | C[C@H]1CCN1c1nc(N2C[C@@H]3[C@@H](CC(=O)O)[C@@H]3C2)c2scc(C#N)c2n1 [WX023] | 6.68 | –
20 | C[C@H]1CCN1c1nc(N2C[C@@H]3[C@@H](CC(=O)O)[C@@H]3C2)c2cccc(F)c2n1 [WX024] | 7.21 | AUC of integral fructose concentration for dosed group [3]: 1858 nM·h; AUC of integral fructose concentration of dosed group/AUC of Integral fructose concentration of control group [3]: 13.4
21 | C[C@H]1CCN1c1nc(N2CC[C@H](CC(=O)O)C2)c2ccsc2n1 [WX025] | 6.62 | –
22 | C[C@H]1CCN1c1nc2c(c(N3C[C@@H]4[C@@H](CC(=O)O)[C@@H]4C3)n1)CCS2 [WX026] | 7.04 | AUC of integral fructose concentration for dosed group [3]: 993 nM·h; AUC of integral fructose concentration of dosed group/AUC of Integral fructose concentration of control group [3]: 8.9
23 | C[C@H]1CCN1c1nc(N2CCC3(CC3C(=O)O)C2)c2ccsc2n1 (stereo partly shown) [WX027] | 6.60 | –
24 | C[C@H]1CCN1c1nc(N2C[C@@H]3[C@@H](CC(=O)O)[C@@H]3C2)c2cc(F)sc2n1 [WX028] | 7.30 | –

Row | Structure (SMILES) | pIC50 [1] | also measured
25 | C[C@H]1CCN1c1nc(N2C[C@@H]3[C@@H](CC(=O)O)[C@@H]3C2)c2cc(Cl)sc2n1 [WX029] | 7.55 | AUC of integral fructose concentration for dosed group [3]: 1687 nM·h; AUC of integral fructose concentration of dosed group/AUC of Integral fructose concentration of control group [3]: 15.1
26 | C[C@H]1CCN1c1nc(N2C[C@@H]3[C@@H](CC(=O)O)[C@@H]3C2)c2c(F)csc2n1 [WX030] | 7.51 | AUC of integral fructose concentration for dosed group [3]: 1029 nM·h; AUC of integral fructose concentration of dosed group/AUC of Integral fructose concentration of control group [3]: 9.2
27 | C[C@H]1CCN1c1nc(NC2CC(C(=O)O)C2)c2ccsc2n1 (stereo partly shown) [WX032] | 6.82 | –
28 | C[C@H]1CCN1c1nc(-c2ccnc(CCC(=O)O)c2)c2ccsc2n1 [WX033] | 7.15 | –
29 | C[C@H]1CCN1c1nc(N2CC3(CC3C(=O)O)C2)c2cccc(F)c2n1 (stereo partly shown) [WX034] | 6.96 | –
30 | C[C@H]1CCN1c1nc(N2CC3(CC3C(=O)O)C2)c2cc(Cl)sc2n1 (stereo partly shown) [WX036] | 7.16 | –
31 | C[C@H]1CCN1c1nc(N2CC3(CC3C(=O)O)C2)c2c(F)csc2n1 (stereo partly shown) [WX037] | 6.82 | –
32 | C[C@H]1CCN1c1nc(N2CC3(CCC3C(=O)O)C2)c2cc(Cl)sc2n1 (stereo partly shown) [WX038] | 6.32 | –
33 | C[C@H]1CCN1c1nc(-c2cncc(OCC(=O)O)c2)c2ccsc2n1 [WX039] | 7.44 | –
34 | C[C@H]1CCN1c1nc(N2CC3(C[C@H]3C(=O)O)C2)c2cccc(F)c2n1 [WX040] | 6.49 | –
35 | C[C@H]1CCN1c1nc(N2CC3(C[C@@H]3C(=O)O)C2)c2cccc(F)c2n1 [WX041] | 7.28 | AUC of integral fructose concentration for dosed group [3]: 1704 nM·h; AUC of integral fructose concentration of dosed group/AUC of Integral fructose concentration of control group [3]: 6.5
36 | C[C@H]1CCN1c1nc(N2CC3(C[C@H]3C(=O)O)C2)c2cc(Cl)sc2n1 [WX044] | 7.09 | –
37 | C[C@H]1CCN1c1nc(N2CC3(C[C@@H]3C(=O)O)C2)c2cc(Cl)sc2n1 [WX045] | 7.52 | –
38 | C[C@H]1CCN1c1nc(N2C[C@@H]3[C@@H](CC(=O)O)[C@@H]3C2)c2sccc2n1 [WX046] | 6.15 | –
39 | C[C@H]1CCN1c1nc(-c2cccc(CCC(=O)O)n2)c2ccsc2n1 [WX047] | 6.20 | –
40 | C[C@H]1CCN1c1nc(-c2cncc(CCC(=O)O)c2)c2ccsc2n1 [WX048] | 7.04 | –
41 | C[C@H]1CCN1c1nc(N2CC3(C2)CC3(C)C(=O)O)c2cc(Cl)sc2n1 (stereo partly shown) [WX049] | 6.68 | –
42 | C[C@H]1CCN1c1nc(N2CC3(CC3C(=O)O)C2)c2cccc(Cl)c2n1 (stereo partly shown) [WX050] | 6.59 | –
43 | C[C@H]1CCN1c1nc(NC2CC3(C2)CC3C(=O)O)c2cc(Cl)sc2n1 (stereo partly shown) [WX051] | 7.16 | –
44 | C[C@H]1CCN1c1nc(N2CC3(C[C@@H]3CC(=O)O)C2)c2ccsc2n1 [WX054] | 6.00 | –
45 | C[C@H]1CCN1c1nc(N2CC3(C[C@H]3CC(=O)O)C2)c2ccsc2n1 [WX055] | 6.19 | –
46 | C[C@H]1CCN1c1nc(N2CC3(C[C@@H]3CC(=O)O)C2)c2cc(Cl)sc2n1 [WX056] | 6.44 | –
47 | C[C@H]1CCN1c1nc(N2CC3(C[C@H]3CC(=O)O)C2)c2cc(Cl)sc2n1 [WX057] | 6.70 | –
